Measurements from PubChem BioAssay (NCI).
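The compound was tested at five concentrations on cells cultured in 96-well plates, with a 48-hour exposure period. TGI marks complete inhibition of growth.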

What was measured:
Assay in all cases: NCI tumour cell line growth inhibition, 48 h
[1] = test system: DMS 114 small cell lung
[2] = test system: CCRF-CEM leukemia
[3] = test system: SNB-75 CNS
[4] = test system: UO-31 renal
[5] = test system: UACC-257 melanoma
[6] = test system: A498 renal
[7] = test system: SK-MEL-28 melanoma
[8] = test system: SK-MEL-5 melanoma
[9] = test system: SF-268 CNS
[10] = test system: LXFL 529 NSCLC
[11] = test system: SF-539 CNS
[12] = test system: M14 melanoma
[13] = test system: KM12 colon
[14] = test system: SK-MEL-2 melanoma
[15] = test system: HOP-92 NSCLC
[16] = test system: COLO 205 colon
[17] = test system: SNB-78 CNS
[18] = test system: HCC-2998 colon
[19] = test system: K-562 leukemia
[20] = test system: IGROV1 ovarian
[21] = test system: TK-10 renal
[22] = test system: HOP-62 NSCLC
[23] = test system: OVCAR-4 ovarian
[24] = test system: MALME-3M melanoma
[25] = test system: LOX IMVI melanoma
[26] = test system: CAKI-1 renal
[27] = test system: KM20L2 colon
[28] = test system: SN12C renal
[29] = test system: NCI-H23 lung
[30] = test system: RXF-631 renal
[31] = test system: OVCAR-8 ovarian
[32] = test system: SF-295 CNS
[33] = test system: DLD-1 colon
[34] = test system: RXF 393 renal
[35] = test system: NCI-H522 lung
[36] = test system: OVCAR-3 ovarian
[37] = test system: NCI-H460 lung
[38] = test system: MOLT-4 leukemia
[39] = test system: ACHN renal
[40] = test system: 786-0 renal
[41] = test system: OVCAR-5 ovarian
[42] = test system: M19-MEL melanoma
[43] = test system: SW-620 colon
[44] = test system: NCI-H226 lung
[45] = test system: HL-60(TB) leukemia
[46] = test system: U251 CNS
[47] = test system: SNB-19 CNS
[48] = test system: HT29 colon
[49] = test system: A549 NSCLC
[50] = test system: SK-OV-3 ovarian
[51] = test system: XF 498 CNS
[52] = test system: RPMI-8226 leukemia
[53] = test system: EKVX NSCLC

Measured: TGI

COc1cccc(C2C(C(=O)Nc3cc(=O)n(C)c(=O)n3C)=C(C)NC(C)=C2C(=O)Nc2cc(=O)n(C)c(=O)n2C)c1O
> 100 µM: all assays above
